Organism: Rattus norvegicus
Assay: Open TG-GATES - Regimen: Single
Assay type: toxicity, organism-based, Sprague-Dawley
Parameters: regimen Single, gender Male, age 6 weeks
Conditions: in vivo, po, 300 mg/kg, route gavage, dose level Middle; for APTT / Bas / Eos / Fbg / Hb / Ht / Lym / MCH / MCHC / MCV / Mono / Neu / PT / Plat / RBC / Ret / WBC: tissue Blood; for KIDNEY_L / KIDNEY_R / KIDNEY_TOTAL: tissue Kidney; for LIVER: tissue Liver; for ALP / ALT / AST / BUN / CRE / Ca / Cl / DBIL / GLC / IP / K / LDH / Na / PL / RALB / TBIL / TC / TG / TP / gamma-GTP: tissue Plasma

SMILES: COC(=O)C1=C(C)NC(C)=C(C(=O)OC)C1c1ccccc1[N+](=O)[O-] [NIFEDIPINE]
- APTT (3 h): 16.6 s
- Bas (3 h): 0.2%
- Eos (3 h): 0.6%
- Fbg (3 h): 299.2 mg/dL
- Hb (3 h): 12.8 g/dL
- Ht (3 h): 39.1%
- Lym (3 h): 75.2%
- MCH (3 h): 21 pg
- MCHC (3 h): 32.9%
- MCV (3 h): 63.8 fL
- Mono (3 h): 3.8%
- Neu (3 h): 19.8%
- PT (3 h): 15.1 s
- Plat (3 h): 126.5 x10_4/uL
- RBC (3 h): 613 x10_4/ul
- Ret (3 h): 9.4%
- WBC (3 h): 113.9 x10_2/uL
- KIDNEY_L (3 h): 0.9 g
- KIDNEY_R (3 h): 0.9 g
- KIDNEY_TOTAL (3 h): 1.8 g
- LIVER (3 h): 8.1 g
- ALP (3 h): 1571 IU/L
- ALT (3 h): 46.2 IU/L
- AST (3 h): 74.8 IU/L
- BUN (3 h): 27.6 mg/dL
- CRE (3 h): 0.3 mg/dL
- Ca (3 h): 11.6 mg/dL
- Cl (3 h): 96.8 meq/L
- DBIL (3 h): 0.01 mg/dL
- GLC (3 h): 263.6 mg/dL
- IP (3 h): 9.5 mg/dL
- K (3 h): 4.7 meq/L
- LDH (3 h): 85 IU/L
- Na (3 h): 134.6 meq/L
- PL (3 h): 135.4 mg/dL
- RALB (3 h): 2.6 g/dL
- TBIL (3 h): 0.034 mg/dL
- TC (3 h): 84.2 mg/dL
- TG (3 h): 33.6 mg/dL
- TP (3 h): 5.3 g/dL
- gamma-GTP (3 h): 1 IU/L
- TERMINAL_BW (6 h): 205.3 g
- APTT (6 h): 16.3 s
- Bas (6 h): 0%
- Eos (6 h): 0.6%
- Fbg (6 h): 293.2 mg/dL
- Hb (6 h): 13.1 g/dL
- Ht (6 h): 40%
- Lym (6 h): 75%
- MCH (6 h): 20.7 pg
- MCHC (6 h): 32.6%
- MCV (6 h): 63.5 fL
- Mono (6 h): 3.8%
- Neu (6 h): 19.8%
- PT (6 h): 14.9 s
- Plat (6 h): 123.8 x10_4/uL
- RBC (6 h): 632 x10_4/ul
- Ret (6 h): 10%
- WBC (6 h): 101.9 x10_2/uL
- KIDNEY_L (6 h): 0.9 g
- KIDNEY_R (6 h): 0.9 g
- KIDNEY_TOTAL (6 h): 1.8 g
- LIVER (6 h): 7.9 g
- ALP (6 h): 1503.6 IU/L
- ALT (6 h): 51.2 IU/L
- AST (6 h): 78.8 IU/L
- BUN (6 h): 32.2 mg/dL
- CRE (6 h): 0.2 mg/dL
- Ca (6 h): 11.3 mg/dL
- Cl (6 h): 97.6 meq/L
- DBIL (6 h): 0.006 mg/dL
- GLC (6 h): 221.4 mg/dL
- IP (6 h): 10.7 mg/dL
- K (6 h): 5.1 meq/L
- LDH (6 h): 78.8 IU/L
- Na (6 h): 136.6 meq/L
- PL (6 h): 150.4 mg/dL
- RALB (6 h): 2.6 g/dL
- TBIL (6 h): 0.042 mg/dL
- TC (6 h): 90.6 mg/dL
- TG (6 h): 19.4 mg/dL
- TP (6 h): 5.5 g/dL
- gamma-GTP (6 h): 1.2 IU/L
- TERMINAL_BW (9 h): 206.1 g
- APTT (9 h): 17.3 s
- Bas (9 h): 0%
- Eos (9 h): 0.6%
- Fbg (9 h): 288 mg/dL
- Hb (9 h): 13.1 g/dL
- Ht (9 h): 39.7%
- Lym (9 h): 78.2%
- MCH (9 h): 21 pg
- MCHC (9 h): 33%
- MCV (9 h): 63.7 fL
- Mono (9 h): 3.6%
- Neu (9 h): 16.4%
- PT (9 h): 14.6 s
- Plat (9 h): 124.2 x10_4/uL
- RBC (9 h): 623 x10_4/ul
- Ret (9 h): 9.8%
- WBC (9 h): 94.7 x10_2/uL
- KIDNEY_L (9 h): 0.9 g
- KIDNEY_R (9 h): 0.9 g
- KIDNEY_TOTAL (9 h): 1.8 g
- LIVER (9 h): 7.3 g
- ALP (9 h): 1317.2 IU/L
- ALT (9 h): 51.2 IU/L
- AST (9 h): 76.6 IU/L
- BUN (9 h): 26.8 mg/dL
- CRE (9 h): 0.2 mg/dL
- Ca (9 h): 10.9 mg/dL
- Cl (9 h): 100.8 meq/L
- DBIL (9 h): 0.01 mg/dL
- GLC (9 h): 193.4 mg/dL
- IP (9 h): 11.1 mg/dL
- K (9 h): 5 meq/L
- LDH (9 h): 72.4 IU/L
- Na (9 h): 137.4 meq/L
- PL (9 h): 156.4 mg/dL
- RALB (9 h): 2.5 g/dL
- TBIL (9 h): 0.046 mg/dL
- TC (9 h): 91 mg/dL
- TG (9 h): 28.2 mg/dL
- TP (9 h): 5.4 g/dL
- gamma-GTP (9 h): 1 IU/L
- TERMINAL_BW (24 h): 198.5 g
- APTT (24 h): 16.6 s
- Bas (24 h): 0%
- Eos (24 h): 1%
- Fbg (24 h): 298.6 mg/dL
- Hb (24 h): 13.1 g/dL
- Ht (24 h): 40%
- Lym (24 h): 67%
- MCH (24 h): 20.4 pg
- MCHC (24 h): 32.7%
- MCV (24 h): 62.2 fL
- Mono (24 h): 3.6%
- Neu (24 h): 27%
- PT (24 h): 14.1 s
- Plat (24 h): 128.1 x10_4/uL
- RBC (24 h): 643.8 x10_4/ul
- Ret (24 h): 9%
- WBC (24 h): 95.9 x10_2/uL
- KIDNEY_L (24 h): 0.9 g
- KIDNEY_R (24 h): 0.9 g
- KIDNEY_TOTAL (24 h): 1.7 g
- LIVER (24 h): 7.8 g
- ALP (24 h): 1579.6 IU/L
- ALT (24 h): 43.8 IU/L
- AST (24 h): 68.4 IU/L
- BUN (24 h): 12 mg/dL
- CRE (24 h): 0.2 mg/dL
- Ca (24 h): 10.6 mg/dL
- Cl (24 h): 107.4 meq/L
- DBIL (24 h): 0.012 mg/dL
- GLC (24 h): 160.4 mg/dL
- IP (24 h): 8.3 mg/dL
- K (24 h): 3.9 meq/L
- LDH (24 h): 73.8 IU/L
- Na (24 h): 145 meq/L
- PL (24 h): 133.6 mg/dL
- RALB (24 h): 2.8 g/dL
- TBIL (24 h): 0.042 mg/dL
- TC (24 h): 77.8 mg/dL
- TG (24 h): 41.2 mg/dL
- TP (24 h): 5.8 g/dL
- gamma-GTP (24 h): 0.8 IU/L
